Reference: patent US20240090503A1, “FUNGICIDAL OXADIAZOLES AND THEIR MIXTURES” (FMC CORPORATION, priority 2020, published 2024)
Marks after values point to notes of the source that are not given here.

How the values were obtained:
Assay type in all cases: in vivo
[1] = system: Puccinia recondita f. sp. tritici (the causal agent of wheat leaf rust); assay: Test C: preventive spray on wheat seedlings, wheat leaf rust, visual disease rating; settings: wheat seedlings
Outline: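 Wheat seedlings sprayed to run-off with compound in acetone/water (50/50) with 250 ppm PEG400, then inoculated with spores the following day. After 24 h saturated humidity at 20° C. and 6 days in growth chamber at 20° C., disease rated visually as % control relative to untreated controls.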

[2] = system: Zymoseptoria tritici (the causal agent of wheat leaf blotch); assay: Test B: preventive spray on wheat seedlings, wheat leaf blotch, visual disease rating; settings: test suspension 250 ppm; wheat seedlings
Outline: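 This is a preventive test: spray application preceded Zymoseptoria tritici spore inoculation by one day. Test suspensions were in acetone/water with 250 ppm PEG400 surfactant, at the listed ppm rate. After 48 h saturated humidity at 24° C and 17 days at 20° C, visual ratings scored control from 0 to 100%.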

[3] = system: Phakopsora pachyrhizi (the causal agent of Asian soybean rust); assay: Test A: preventive spray on soybean seedlings, Asian soybean rust, visual disease rating; settings: soybean seedlings
Outline: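 Compound in acetone/water (50/50) with 250 ppm PEG400 sprayed to run-off on soybean seedlings; inoculated next day with Phakopsora pachyrhizi spores. Held 24 h at 22° C in saturated atmosphere, then 8 days in a 22° C growth chamber before visual rating as % disease control relative to controls.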

[4] = test suspension 10 ppm, 100 = 100% disease control, 0 = no control

| Compound | Test C disease control rating ([1]; test suspension 50 ppm) | Test B disease control rating [2] | Test A disease control rating ([3]; test suspension 50 ppm) | Test C disease control rating ([1]; test suspension 10 ppm) | Test A disease control rating [3, 4] | Test C disease control rating ([1]; test suspension 250 ppm) | Test A disease control rating ([3]; test suspension 250 ppm) |
| --- | --- | --- | --- | --- | --- | --- | --- |
| CN(C)C(=O)C1=NOC(Cn2cc(-c3noc(C(F)(F)F)n3)cn2)C1 (stereo not drawn) [compound 306] | 0% | 10* % | 0% | – | – | – | – |
| CCOC(=O)c1cnn(CCn2cc(-c3noc(C(F)(F)F)n3)cn2)c1 [compound 307] | 0% | 0* % | 0% | – | – | – | – |
| COC(=O)c1ccc(CCn2cc(-c3noc(C(F)(F)F)n3)cn2)cc1 [compound 310] | 0% | 0* % | 0% | – | – | – | – |
| COC(=O)c1ccc(Cn2cc(-c3noc(C(F)(F)F)n3)cn2)cc1 [compound 311] | 0% | 0* % | 0% | – | – | – | – |
| COC(=O)c1cc(COc2ccc(-c3noc(C(F)(F)F)n3)cc2)on1 [compound 312] | – | 0* % | – | 0% | 0% | – | – |
| FC(F)(F)c1nc(-c2ccc(OCc3cn4ccccc4n3)cc2)no1 [compound 313] | – | 14* % | – | 0% | 77% | – | – |
| CN(C)C(=O)c1cc(COc2ccc(-c3noc(C(F)(F)F)n3)cc2)on1 [compound 314] | – | 86* % | – | 0% | 99% | – | – |
| CN(C)C(=O)c1coc(Cc2ccc(-c3noc(C(F)(F)F)n3)cc2)n1 [compound 315] | – | 97* % | – | 99% | 100% | – | – |
| COC(=O)c1ccc(COc2ccc(-c3noc(C(F)(F)F)n3)cc2)s1 [compound 317] | – | 54* % | – | 0% | 0% | – | – |
| FC(F)(F)c1nc(-c2ccc(OCc3ccon3)cc2)no1 [compound 318] | – | 11* % | – | 0% | 0% | – | – |
| FC(F)(F)c1nc(-c2ccc(OCc3cn4cccnc4n3)cc2)no1 [compound 319] | – | 33* % | – | 0% | 97% | – | – |
| FC(F)(F)c1nc(-c2ccc(OCc3nc4ncccc4o3)cc2)no1 [compound 320] | – | 33* % | – | 0% | 97% | – | – |
| O=S1(=O)CCCCN1Cc1ccc(-c2noc(C(F)(F)F)n2)cc1 [compound 321] | – | 99* % | – | – | – | 100% | 100% |
| O=S1(=O)CCCN1Cc1ccc(-c2noc(C(F)(F)F)n2)cc1 [compound 322] | – | 95* % | – | – | – | 100% | 100% |
| O=S1(=O)CCCCN1Cc1ccc(-c2noc(C(F)(F)F)n2)s1 [compound 323] | – | 92* % | – | – | – | 100% | 100% |
| O=S1(=O)CCCN1Cc1ccc(-c2noc(C(F)(F)F)n2)s1 [compound 324] | – | 80* % | – | – | – | 100% | 100% |
| O=C1COCCN1Cc1ccc(-c2noc(C(F)(F)F)n2)s1 [compound 325] | – | 36* % | – | – | – | 100% | 100% |
| FC(F)(F)c1nc(-c2cnn(CCCn3cc(-c4noc(C(F)(F)F)n4)cn3)c2)no1 [compound 326] | – | 1* % | – | – | – | 67% | 84% |
| O=C(NCC1CC1)c1coc(Cc2ccc(-c3noc(C(F)(F)F)n3)cc2)n1 [compound 327] | – | 94* % | – | 100% | 100% | – | – |
| O=C(NCC(F)(F)C(F)(F)F)c1coc(Cc2ccc(-c3noc(C(F)(F)F)n3)cc2)n1 [compound 328] | – | 0* % | – | 100% | 100% | – | – |
| O=C(NC1CSC1)c1coc(Cc2ccc(-c3noc(C(F)(F)F)n3)cc2)n1 [compound 329] | – | 98* % | – | 98% | 100% | – | – |
| CC(C)(NC(=O)c1coc(Cc2ccc(-c3noc(C(F)(F)F)n3)cc2)n1)C(F)(F)F [compound 331] | – | 97* % | – | 94% | 99% | – | – |

| Compound | Test C disease control rating ([1]; test suspension 50 ppm) | Test B disease control rating [2] | Test A disease control rating ([3]; test suspension 50 ppm) | Test C disease control rating ([1]; test suspension 10 ppm) | Test A disease control rating [3, 4] | Test C disease control rating ([1]; test suspension 250 ppm) | Test A disease control rating ([3]; test suspension 250 ppm) |
| --- | --- | --- | --- | --- | --- | --- | --- |
| O=C(NC1CCOC1=O)c1coc(Cc2ccc(-c3noc(C(F)(F)F)n3)cc2)n1 (stereo not drawn) [compound 332] | – | 99* % | – | 99% | 100% | – | – |
| C=CCOC(=O)c1coc(Cc2ccc(-c3noc(C(F)(F)F)n3)cc2)n1 [compound 334] | – | 92* % | – | 86% | 99% | – | – |
| CC(C)COC(=O)c1coc(Cc2ccc(-c3noc(C(F)(F)F)n3)cc2)n1 [compound 335] | – | 73* % | – | 94% | 100% | – | – |
| Cc1noc(C)c1COc1ccc(-c2noc(C(F)(F)F)n2)cc1 [compound 338] | – | 10* % | – | 0% | 99% | – | – |
| O=C(NC1CC1)c1csc(Cc2ccc(-c3noc(C(F)(F)F)n3)cc2)n1 [compound 342] | – | 99* % | – | 100% | 100% | – | – |
| NC(=O)c1csc(Cc2ccc(-c3noc(C(F)(F)F)n3)cc2)n1 [compound 343] | – | 97* % | – | 100% | 100% | – | – |
| CCOC(=O)c1csc(Cc2ccc(-c3noc(C(F)(F)F)n3)cc2)n1 [compound 344] | – | 96* % | – | 93% | 100% | – | – |
| O=C(O)c1csc(Cc2ccc(-c3noc(C(F)(F)F)n3)cc2)n1 [compound 345] | – | 50* % | – | 68% | 96% | – | – |
| CCOC(=O)c1cnn(Cn2nc(-c3noc(C(F)(F)F)n3)ccc2=O)c1 [compound 346] | – | 0* % | – | 0% | 0% | – | – |
| CCOC(=O)c1cnn(CCn2nc(-c3noc(C(F)(F)F)n3)ccc2=O)c1 [compound 347] | – | 0* % | – | 0% | 0% | – | – |
| CCNC(=O)c1ccc(COc2ccc(-c3noc(C(F)(F)F)n3)cc2)s1 [compound 352] | – | 0* % | – | 68% | 87% | – | – |
| COC(=O)c1ccc(COc2ccc(-c3noc(C(F)(F)F)n3)cc2)cc1 [compound 354] | – | 20* % | – | 0% | 0% | – | – |
| FC(F)(F)c1nc(-c2ccc(OCc3nc4ccccc4o3)cc2)no1 [compound 355] | – | 4* % | – | 0% | 0% | – | – |
| CN(C)N1C(=O)C(Cl)=C(Oc2ccc(-c3noc(C(F)(F)F)n3)cc2)C1=O [compound 356] | – | 96* % | – | – | – | 94% | 99% |
| CC(C)(C)NN1C(=O)C(Cl)=C(Oc2ccc(-c3noc(C(F)(F)F)n3)cc2)C1=O [compound 357] | – | 99* % | – | – | – | 91% | 98% |
| CCOC(=O)c1cnn(CCCn2nc(-c3noc(C(F)(F)F)n3)ccc2=O)c1 [compound 358] | – | 0* % | – | 0% | 0% | – | – |
| N#Cc1cnn(CCCc2ccc(-c3noc(C(F)(F)F)n3)cc2)c1 [compound 359] | – | 99* % | – | 95% | 100% | – | – |
| CCCOC(=O)c1cnn(CCCc2ccc(-c3noc(C(F)(F)F)n3)cc2)c1 [compound 365] | 99% | 80* % | 100% | – | – | – | – |
| N#Cc1csc(Cc2ccc(-c3noc(C(F)(F)F)n3)cc2)n1 [compound 370] | – | 98* % | – | – | – | 100% | 100% |
| O=C1CCCN1Cc1ccc(-c2noc(C(F)(F)F)n2)cc1 [compound 371] | – | 95* % | – | – | – | 100% | 100% |
| O=C1COCCN1Cc1ccc(-c2noc(C(F)(F)F)n2)cc1 [compound 372] | – | 99* % | – | – | – | 100% | 100% |
| C=CCOC(=O)c1cnn(CCCc2ccc(-c3noc(C(F)(F)F)n3)cc2)c1 [compound 373] | – | 99* % | – | – | – | 100% | 100% |
